From US20120108563A1, “Methods Of Treating Liposarcoma” (Infinity Pharmaceuticals, Inc., priority 2009, published 2012)

Tested on: dedifferentiated metastatic liposarcoma
Experiment: Administration of compound 2 to a human subject with dedifferentiated metastatic liposarcoma (imaging assessment, RECIST)
Assay type: in vivo
Settings: one human patient
Description: A human subject with dedifferentiated metastatic liposarcoma was treated with compound 2 at 400 mg/m^2. The patient received two doses of compound 2 at 400 mg/m^2 during the first cycle of therapy. The patient received two doses at 300 mg/m^2 during the second cycle of therapy. The patient then received 225 mg/m^2 for seven cycles of therapy. […] The patient received a total of 9 cycles of compound 2 with maximal tumor shrinkage occurring after 7 cycles (54% tumor shrinkage).

[1] = after first cycle of therapy (two doses at 400 mg/m^2)

With C=CCNc1c(O)cc2c(O)c1C[C@@H](C)C[C@H](OC)[C@H](O)[C@@H](C)/C=C(\C)[C@H](OC(N)=O)[C@@H](OC)/C=C\C=C(/C)C(=O)N2.Cl [compound 2, Hydrochloride Salt of the Hydroquinone of 17-AAG] the maximal tumor shrinkage (after 7 cycles, of 9 cycles in total) was 54%, the “imaging assessment of response (RECIST)” value [1] was “stable disease” and the “tumor shrinkage using Response Evaluation Criteria in Solid Tumors (RECIST)” value [1] was 28%. For the same compound, the response achieved (by the end of cycle 3) was “partial response” and the tumor shrinkage (by the end of cycle 3 (cycle 1 at 400 mg/m^2, cycle 2 at 300 mg/m^2, then 225 mg/m^2)) was 35%.
